Test results: US6794376B2, “Methods and compositions for enhancing diffusion of therapeutic agents through tissue” (William Beaumont Hospital, priority 2000, dated 2004)

Assays:
[1] = tested on: spheroids made from DU-145 human prostate carcinoma cells; assay: Adenovirus vector (beta-galactosidase reporter) penetration into DU-145 spheroids treated with permeabilizer, with or without hyperthermia; assay type: cell-based
Experimental: The spheroids made from DU-145 human prostate carcinoma cells were grown to an average diameter of 500 micrometers and then suspended in culture medium containing 0.1% to 3% cyclopentadecanolide plus adenovirus vectors that had beta-galactosidase as a reporter transgene. Once a viral vector entered a cell, beta-galactosidase was expressed constitutively under control of the human CMV promoter. The experimental protocol called for the spheroids to be incubated for 48 to 72 hours following treatment to permit transgene expression. It should be noted that a reporter gene was utilized in this Example, as well as in Examples 4 and 5, only to facilitate determination of the extent of vector diffusion. Any other polynucleotide could be used in this system, including suicide genes and genes encoding therapeutic proteins.
Within 6 to 24 hours following permeabilizer treatment, depending upon the permeabilizer concentration used, the cells within the spheroid regions where the intercellular space was increased became detached from the spheroid.

[2] = tested on: Du-145 tumors grafted onto mice; assay: Adenovirus vector diffusion (X-gal staining) in Du-145 xenograft tumors injected with permeabilizer, with or without hyperthermia; assay type: in vivo; conditions: single injection of 30 microliters, tumor retrieved at 72 hours
Experimental: Du-145 tumors grafted onto mice were injected with cyclopentadecanolide and adenovirus vector that contained the beta-galactosidase transgene, all in PBS. The tumor was retrieved 72 hours after treatment, cryosectioned, and stained with X-gal to visualize beta-galactosidase expression.
In this example, tumors were heated to 41.0° C. using an unfocused ultrasonic transducer prior to treatment with permeabilizer and virus vector. When hyperthermia was established, the tumor was given a single injection of 30 microliters containing 6% cyclopertadecanolide and 2×10^10 adenovirus vectors that contained the beta-galactosidase transgene, all in PBS. Following the injection, the hyperthermia was continued for an additional 45 minutes. That is, the elevated temperature was maintained for 45 minutes after injection. The tumor was retrieved 72 hours following the injection, cryosectioned, and stained with X-gal to visualize beta-galactosidase expression.
The voids were filled with light amber colored, gelatinous material, indicating break-down of the tissue cell membranes.

[3] = Highest permeabilizer concentration that gives a stable emulsion; assay type: physicochemical
Experimental: As indicated above, prior to delivery to the tissue of interest, a working emulsion of the permeabilizer is prepared, preferably from one of the stocks. The working emulsion preferably comprises one or more permeabilizers in a buffer. The concentration of the permeabilizer will depend on the permeabilizer used in the procedure being conducted. Because ethylene brassylate and civetone are liquids, they can be administered to a tissue at concentrations up to 100%. Preferably, the working emulsion contains ethylene brassylate, civetone, or a combination of both at a concentration of between approximately 0.1 and 20% (volume/volume). As indicated above, Cyclopentadecanone and cyclopentadecanolide, however, are solids. The highest concentration of cyclopentadecanone or cyclopentadecanolide that can be made into a stable emulsion is approximately 25% (weight/volume). As a result, the working emulsion preferably contains cyclopentadecanone or cyclopentadecanolide at a concentration of between approximately 0.1 and 25%. Particularly preferred is a working solution that contains cyclopentadecanone, cyclopentadecanolide, or a combination of both, at a concentration of between approximately 0.1 and 7%.

[4] = tested on: Spheroids made from MCF-7 human breast carcinoma cells; assay: Doxorubicin penetration and morphology in MCF-7 spheroids treated with permeabilizer, with or without hyperthermia; assay type: cell-based
Experimental: Spheroids made from MCF-7 human breast carcinoma cells were treated with 3.0 micrograms per milliliter doxorubicin for six hours at various temperatures and under various permeabilizer conditions. Doxorubicin is an anti-neoplastic drug frequently used in chemotherapy procedures. When the spheroids were treated for six hours at 37.0° C. in the absence of permeabilizer, the drug penetrated only six cell layers into the spheroids. […] The spheroids in this experiment also underwent a characteristic change in morphology. […] These changes in spheroid morphology and drug penetration were never observed in control spheroids that received no permeabilizer treatment. Furthermore, these changes were never observed in spheroids that received sham treatment, which included exposure to all components used in the permeabilizer emulsion except the permeabilizer.
In this example, spheroids were treated as in example 1 with the addition of hyperthermia as an additional variable in the experiment. Hyperthermia in this example involved raising the temperature of the spheroids to approximately 40° C. […] Hyperthermia treatment alone had no effect on penetration of doxorubicin or upon the intercellular space.

[5] = 6% permeabilizer and 2×10^10 adenovirus vectors, hyperthermia 41.0° C. kept for 45 minutes after injection

O=C1CCCCCCCCCCCCCCO1 [cyclopentadecanolide]
transgene expression in cells that detached from the spheroids ([1]; 0.1% to 3% cyclopentadecanolide plus adenovirus vectors with beta-galactosidase reporter transgene): exhibit beta-galactosidase activity
cell detachment from the spheroid when hyperthermia was included ([1]; 0.1% to 3% cyclopentadecanolide plus hyperthermia): grossly exacerbated
X-gal staining from beta-galactosidase expression in tumor sections [2, 5]: pervaded the remainder of the sections
tumor section morphology (tissue destruction) [2, 5]: large voids in the center of the sections
X-gal staining from beta-galactosidase expression in tumor sections ([2]; 12% cyclopentadecanolide and 2×10^10 adenovirus vectors, no hyperthermia): pervasive throughout the section
highest concentration that can be made into a stable emulsion [3]: approximately 25 % (weight/volume)

O=C1CCCCCCCCCCCCCC1 [cyclopentadecanone]
spheroid morphology / intercellular space ([4]; 0.6% cyclopentadecanone, 37.0° C., six hours): increase in intercellular space
degree to which doxorubicin penetrated the spheroids ([4]; 3.0 micrograms per milliliter doxorubicin, six hours, culture medium containing 0.6% cyclopentadecanone, 37.0° C.): essentially tripled
permeabilizer activity with concurrent hyperthermia ([4]; as example 1 plus hyperthermia, approximately 40° C.): marked potentiation of permeabilizer activity
doxorubicin penetration with permeabilizer and hyperthermia ([4]; as example 1 plus hyperthermia, approximately 40° C., doxorubicin fluorescence): penetrated all recesses of the spheroids
intercellular space with concurrent hyperthermia ([4]; as example 1 plus hyperthermia, approximately 40° C., intact and sectioned spheroids): greater increase in intercellular space
highest concentration that can be made into a stable emulsion [3]: approximately 25 % (weight/volume)

COc1cccc2c1C(=O)c1c(O)c3c(c(O)c1C2=O)C[C@@](O)(C(=O)CO)C[C@@H]3O[C@H]1C[C@H](N)[C@H](O)[C@H](C)O1 [doxorubicin, reference compound]
depth of doxorubicin penetration into the spheroids ([4]; 3.0 micrograms per milliliter doxorubicin, six hours, 37.0° C., absence of permeabilizer): six
effect of hyperthermia treatment alone on penetration of doxorubicin ([4]; hyperthermia approximately 40° C., no permeabilizer): no effect
